Test results reported in patent publication US6365628B1 (Thia Medica AS, priority 1998, dated 2002).

Assays:
Format in all cases: in vivo, rat
[1] = tested on: high fat diet fed Wistar Charles River rats; test: High fat diet with or without TTA for three weeks, adipose tissue weights (Example 5); conditions: high fat diet + 0.4% TTA for three weeks, mean ± SEM
Protocol: Male Wistar Charles River rats weighing 280-358 grams were purchased from AnLab Ltd. (Prague, Czech Republic) and housed in wire-mesh cages in a temperature (22±1° C.) and light-controlled (light from 7:00 a.m. to 7:00 p.m.) room. They were given free access to chow and water. Three rats were housed per cage. Weight gain and food intake were recorded daily.
High Fat (HF): 1.9% gelatin, 5.7% wheat bran, 7.7% vitamins and minerals, 25.4% corn starch, 25.7% casein, 26.8% beef tallow and 7.1% sunflower oil.
HF+TTA: Same+0.4% TTA dissolved in the beef tallow.
Male Wistar Charles River rats (280-360 g) were fed 3 different diets (see methods) for 3 weeks ad libitum. Afterwards, they were killed by decapitation, liver and epididymal adipose tissue pads were dissected out and weighed.
Feeding the Wistar rats the high fat diet thus increased the epididymal and retroperitoneal fad pad weight.

[2] = tested on: Wistar Charles River rats; test: High fat diet induced hyperinsulinemia (Example 11); conditions: HF diet supplemented with TTA, 21 days, overnight fast (FIG. 3)
Protocol: (§1) Glucose (GLU, Boehringer Mannheim, Germany), free fatty acids (NEFA, C ACS-ACOD kit; Wako Chemicals, Dalton, USA) and b-hydroxybutyrate (310-A kit; Sigma Diagnostics Inc., St. Louis, USA) concentrations were measured using enzymatic methods. Insulin concentrations were determined with radioimmunoassay by (CIS bio International, Gif sur Yvette, France) using rat insulin as standard in the Zucker rats. In the Wistar Charles River rats, plasma glucose concentrations were measured with the aid of Beckman Glucose Analyzer (Fullerton, Calif., USA). Plasma insulin levels were measured using a RIA kit from Linco Research Inc. (St. Charles, Mo., USA). Phospholipids were measured by the enzymatic method of bioMérieux, Marcy-l {grave over ( )}Etoile, France, Triacylglycerol by the Technicon Method no. SA4-0324L90, USA and Cholesterol by the Technicon Method no. SA4-0305L90, USA.
Rats weighing 280-360 g were divided into 3 groups (n=6) and fed with three different diets: standard rat chow, high fat diet (HF) and HF supplemented with TTA. After 21 days on their respective diets, blood was collected after an overnight fast from the tail vein. The data are shown as mean±SEM. Results were analysed by ANOVA and different letters denote statistical significance (p<0.05).

[3] = tested on: 5 weeks old Zucker (fa/fa) rats; test: Blood insulin and glucose in 5 weeks old Zucker (fa/fa) rats (Example 13); conditions: 300 mg/kg/day oral gavage, 11 days (FIG. 5)
Protocol: as §1
The rats were administered TTA at a dose of 300 mg/kg/day suspended in 0.5% CMC (n=6) by oral gavage. Following 11 days of treatment, rats were killed by cervical dislocation. Blood was collected and the levels of insulin and glucose measured as indicated in the method section. Data are means±S.D.

[4] = tested on: obese Zucker (fa/fa) rats; test: Liver mitochondrial fatty acid oxidation, CPT-I and CPT-II after TTA feeding (Example 16); conditions: chow with 0.15% TTA
Protocol: Freshly isolated livers from individual old Zucker rats, were homogenised in ice-cold sucrose buffer (0.25 M sucrose, 10 mM HEPES (pH 7.4) and 2 mM EDTA). Post-nuclear and mitochondrial fractions were prepared using preparative differential centrifugation according to DeDuve et al. (De Duve, C., et al., Biochem. J., 60, 604-617 1955.) Modifications, purity and yield were as described earlier (Garras, A., et al., Biochim. Biophys. Acta, 1255, 154-160 1995.). Acid soluble products were measured in post-nuclear and mitochondrial enriched fractions, using [1-^14C]-palmitoyl-CoA and [1-^14C]-palmitoyl-L-carnitine (Radiochemical Centre, Amersham, England) as substrates as described earlier (Willumsen, N., et al., J. Lipid Res., 34, 13-22 1993. Carnitine palmitoyltransferase-I and -II activities were measured in the post-nuclear and mitochondrial fractions essentially as described by Bremer (Bremer, J., Biochim. Biophys. Acta, 665, 628-631 1981.) and 3-hydroxy-3-methylglutharyl-CoA synthase was measured according to Clinkenbeard et al. (Clinkenbeard, K. D., et al., J. Biol. Chem, 250, 3108-3116 1975.) in the mitochondrial fractions.
RNA extraction (Chomczynski, P., et al., Anal. Biochem., 162, 156-159 1987.), Northern blot analysis and slot blotting of RNA onto nylon filters, and hybridisation to immobilised RNA were performed as earlier described (Vaagenes, H., et al., Biochem. Pharmacol., 56, 1571-1582 1998.). […]
Obese Zucker (fa/fa) rats were given a standard chow either with (n=6) or without (n=5) 0.15% TTA. […] Fatty acid oxidation rates were measured using [1-^14C]-palmitoyl CoA or [1-^14C]-palmitoyl-L-carnitine as substrates (A) CPT-I (B) and CPT-II (C) were measured in the mitochondrial factions. […] The relative mRNA levels were determined by densiometric scanning of the autoradiograms and the different mRNA levels were normalised to the respective 28S rRNA and the means for the controls were set to 1. […] Values are expressed as the mean±S.D.

## Tetradecylthioacetic acid [TTA]
[1]
  Epididymal adipose tissue: 3.1 ± 0.2 g
  Epididymal adipose tissue/body weight (%): 1.0 ± 0.1%
  Retroperitoneal adipose tissue: 2.7 ± 0.2 g
  Retroperitoneal adipose tissue/body weight (%): 0.8 ± 0.05%
[2]
  High fat diet-induced hyperinsulinemia: prevents high fat diet-induced hyperinsulinemia
[3]
  Reduction of blood concentration of glucose: ~15%
  Reduction of blood insulin concentration: ~40%
[4]; 21 days (FIG. 8B)
  Activity and mRNA levels of CPT-I: increase
[4]; 21 days (FIG. 8C)
  Activity and mRNA levels of CPT-II: increase
[4]; 21 days, palmitoyl-CoA and palmitoyl-L-carnitine as substrates (FIG. 8A)
  Increase of liver fatty acid oxidation: more than 7 fold
